Columns and labels:
LLTC cell line = test: Cytotoxicity against mouse LLTC cells assessed as reduction in cell viability after 24 hrs in presence of GSH by MTT assay; format: cell-based
[1] = target: T1, Indoleamine 2,3-dioxygenase 1 (Homo sapiens, UniProt P14902); test: Inhibition of recombinant human IDO1 expressed in bacterial expression system using L-Tryptophan as substrate after 25 mins in absence of GSH and presence of tween20 by fluorescence assay
Target sequence in this assay (P14902 whole entry): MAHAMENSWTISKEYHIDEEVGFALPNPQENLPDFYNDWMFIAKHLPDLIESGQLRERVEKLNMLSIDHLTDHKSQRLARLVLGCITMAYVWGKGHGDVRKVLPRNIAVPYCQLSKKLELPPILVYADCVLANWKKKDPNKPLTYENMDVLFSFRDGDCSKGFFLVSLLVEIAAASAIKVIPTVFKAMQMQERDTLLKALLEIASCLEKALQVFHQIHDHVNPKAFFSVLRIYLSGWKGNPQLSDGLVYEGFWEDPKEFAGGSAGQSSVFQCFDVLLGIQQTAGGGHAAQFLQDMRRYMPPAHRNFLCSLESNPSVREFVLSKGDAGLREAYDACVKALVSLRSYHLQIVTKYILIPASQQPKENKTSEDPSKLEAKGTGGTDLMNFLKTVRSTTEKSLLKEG

[2] = target: T1, Indoleamine 2,3-dioxygenase 1; test: Inhibition of recombinant human IDO1 expressed in bacterial expression system using L-Tryptophan as substrate after 25 mins in absence of GSH and tween20 by fluorescence assay
Target sequence in this assay (P14902 whole entry): as above

[3] = target: T1, Indoleamine 2,3-dioxygenase 1; test: Inhibition of full length recombinant human His-tagged IDO1 expressed in mouse LLTC cells using L-tryptophan as substrate after 24 hrs in presence of GSH; format: cell-based
Target sequence in this assay (P14902 whole entry): as above

[4] = target: T1, Indoleamine 2,3-dioxygenase 1; settings: 40 uM
Target sequence in this assay (P14902 whole entry, looked up): as the sequence (P14902 whole entry) above

[5] = target: T1, Indoleamine 2,3-dioxygenase 1; test: Inhibition of recombinant human IDO1 expressed in bacterial expression system using L-Tryptophan as substrate after 25 mins in presence of GSH and tween20 by fluorescence assay
Target sequence in this assay (P14902 whole entry): as above

[6] = Cytotoxicity against mouse LLTC cells assessed as reduction in cell viability after 24 hrs by MTT assay; format: cell-based; settings: read-out: LC50
[7] = target: Indoleamine 2,3-dioxygenase 1 (Homo sapiens, UniProt P14902, S167A)
[8] = target: T1, Indoleamine 2,3-dioxygenase 1; test: Inhibition of full length recombinant human His-tagged IDO1 expressed in mouse LLTC cells using L-tryptophan as substrate after 24 hrs; format: cell-based
Target sequence in this assay (P14902 whole entry): as above

Homo sapiens = species: Homo sapiens; test: Selectivity ratio of IC50 for recombinant human IDO1 S167A mutant expressed in Escherichia coli SG13009(pREP4) to IC50 for recombinant human IDO1 expressed in bacterial expression system

Indoleamine 2,3-dioxygenase 1 (Homo sapiens, UniProt P14902, S167A), sequence (P14902 whole entry S167A): as the sequence (P14902 whole entry) above, with S167A counted along it

With `Oc1nccc(SCc2ccc(Cl)cc2Cl)n1` the Activity (LLTC cell line) was “Non-Toxic”, the IC50 [1] was 7.5 µM and the IC50 [2] was 4.3 µM. For the same compound, the IC50 [3] was 0.2 to 3 µM, the inhibition [4] was < 25% and the IC50 [5] was 0.75 µM. For the same compound, the CC50 at 24 h [6] was > 117 µM, the IC50 [7] was 20 µM and the IC50 [8] was 4.4 µM. For the same compound, the Ratio IC50 (Homo sapiens) was 3.

— ChEMBL document CHEMBL4007389, “Discovery and evaluation of inhibitors to the immunosuppressive enzyme indoleamine 2,3-dioxygenase 1 (IDO1): Probing the active site-inhibitor interactions” (Eur J Med Chem, 2017)
